Experiments:
[1] = Expert sensory testing of racemic menthol vs (−)-menthol in toothpaste (CREST Cavity) with standard spearmint flavor; assay type: in vivo
Method: In separate, unpublished internal experiments, perceptual experiences of racemic menthol are quantified via expert sensory testing. The use of a standard spearmint flavor (minimizing extra menthol contribution) compared racemic menthol to (−)-menthol in a toothpaste formulation (CREST Cavity). There are several sensory observations taken from these experiments. […] These aromatic notes appear during brushing and disappear after 5-10 minutes post expectoration and are more pronounced as concentrations increase.

[2] = Comparison of cooling attributes of (−)-menthol and racemic menthol in toothpaste (Crest Cavity formulation); assay type: in vivo
Text: The following data helps support the use of racemic menthol to reduce costs of mint flavor compositions herein described. From internal unpublished research, Table B compares replacing (−)-menthol with a racemic menthol in a 1:1 in a toothpaste formulation. Such a direct replacement is not preferred given the reduced cooling profile and olfactory differences; however, a portion of L-menthol is preferably replaced by racemic-menthol to gain cost efficiency while minimizing impact to the overall mint flavor profiles.
This value represents the concentration of a coolant where 50% of its maximal cooling is observed.

Structure (SMILES): CC1CCC(C(C)C)C(O)C1 (racemic) [Racemic Menthol]
- less potent than (−)-menthol for cooling [1]: 25-30%
- Potency compared to L-Menthol [2]: ~0.65-0.7x
- Time Point at Maximum Cooling [2]: ~1 min
- Maximum Cooling (0-60 scale) ([2]; 60 = greatest amount of cooling, 0 = least): 35
- EC 50 ([2]; concentration of coolant where 50% of maximal cooling is observed): 1,250 to 1,500 parts per million
- Maximum Longevity ([2]; cooling): Up to 20 minutes

From patent US20250031733A1, “Mint Flavor Compositions” (The Procter & Gamble Company, priority 2020, published 2025)
